# Paper PMC3775761, “Structure-Activity Relationships of FMRF-NH2 Peptides Demonstrate A Role for the Conserved C Terminus and Unique N-Terminal Extension in Modulating Cardiac Contractility” (PLoS ONE, 2013)
# Where two headings read alike, the source gives them in different places.
# How the values were obtained:
# FMRFa-R = details: expressed FMRFa-R protein, cited from earlier work
# Procedure: In contrast, when the small, non-aromatic residue A was substituted for F, strong contacts which anchored FMRF-NH2 in the FMRFa-R binding pocket were lost, which substantially weakened ligand-receptor interactions (Figure 5, Tables 5 and 6). In addition, the F ... || Next, the effect of the analog SDNAMRF-NH2 was measured on heart rate at 1 µM. SDNAMRF-NH2 increased adult heart rate by 48±10%, a significant effect similar to SDNFMRF-NH2 (Figure 12, Table 14). The effect of the peptide analog was analyzed in adult because it is a developmental stage in which a robust response occurs which thus allows for subtle changes to be observed. […] Past studies analyzed the effects of some or all of these peptides in a bioassay; yet no report to date investigated th ...
# [1] = tested on: adult, larval, and pupal heart; test: in vivo semi-isolated heart rate assay; set-up: species or system Drosophila melanogaster; details: peptide 1 µM; for % increase in heart rate, Adult: adult heart (1 day adults); for % increase in heart rate, Adult / % increase in heart rate, Larval / % increase in heart rate, Pupal: maximum response within 10-minute recording, mean ± S.E.M., n≥6, basal heart rate = 100%; for % increase in heart rate, Larval: larval heart (wandering 3rd instar larvae); for % increase in heart rate, Pupal: pupal heart (white prepupae)
# Procedure: D. melanogaster Oregon R strain flies were maintained on cornmeal molasses media at 24°C under a 12 hour light/dark cycle. Animals analyzed were wandering 3rd instar larvae, white prepupae, and 1 day adults. The effects of peptides and physiological saline, the carrier, were measured on both females and males; no sex-specific response was observed. The in vivo semi-isolated heart rate assays were performed according to a previously reported protocol. The rate of heart contractions for each animal was measured prior to application of a peptide (1 µM) or saline, the carrier, to provide a measure of basal rate. Animals (n≥6) were used only once. During and after delivery of the peptide or saline, contractions were continuously recorded for a 10-minute time period. The data analyzed were the maximum responses within the 10-minute recording period reported as mean values ± S.E.M. Data are reported as % basal heart rate where the frequency of contractions before application of peptide or saline is considered a measure of the baseline or basal level. Effects of peptides were compared to saline using Single Factor ANOVA with significance set at p ≤ 0.01; a peptide was considered to be active if its effects were statistically different from saline. The statistical outcomes were identical when calculated using two different data packages, Microsoft Excel and IBM SPSS.
# [2] = Chinese hamster ovary cells, read-out: EC50, ligand-FMRFa-R binding
# [3] = read-out: EC50, peptides bind FMRFa-R
substance,measurement,setting,value
AMRF-NH2 [analog replacing F1 with A],EC50,FMRFa-R; [2],3220 nM
TPAEDFMRF-NH2 [D. melanogaster FMRF-NH2 peptide encoded in dFMRFa],"% increase in heart rate, Adult",[1],40±2%
same,"% increase in heart rate, Larval",[1],20±4%
same,"% increase in heart rate, Pupal",[1],26±8%
same,EC50,FMRFa-R; [3],2.8 nM
SPKQDFMRF-NH2 [D. melanogaster FMRF-NH2 peptide encoded in dFMRFa],"% increase in heart rate, Adult",[1],32±8%
same,"% increase in heart rate, Larval",[1],23±6%
same,"% increase in heart rate, Pupal",[1],12±1%
same,EC50,FMRFa-R; [3],2.5 nM
PDNFMRF-NH2 [D. melanogaster FMRF-NH2 peptide encoded in dFMRFa],"% increase in heart rate, Adult",[1],51±12%
same,"% increase in heart rate, Larval",[1],26±5%
same,"% increase in heart rate, Pupal",[1],27±7%
same,heart rate return to baseline,"[1]; pupal heart, recording period",did not return to baseline within the recording period
same,EC50,FMRFa-R; [3],1.8 nM
SDNAMRF-NH2 [designed analog of SDNFMRF-NH2 with F to A substitution],"% increase in heart rate, Adult",[1],48±10%
same,EC50,FMRFa-R; [2],102 nM
DPKQDFMRF-NH2 [D. melanogaster FMRF-NH2 peptide encoded in dFMRFa],"% increase in heart rate, Adult",[1],44±11%
same,"% increase in heart rate, Larval",[1],20±5%
same,"% increase in heart rate, Pupal",[1],21±5%
same,EC50,FMRFa-R; [3],2 nM
YMRF-NH2 [analog in which Y replaced F1],EC50,FMRFa-R; [2],31 nM
FMRF-NH2 [conserved C-terminal tetrapeptide; molluscan cardioexcitatory tetrapeptide],"% increase in heart rate, Adult",[1],37±11%
same,"% increase in heart rate, Larval",[1],28±8%
same,"% increase in heart rate, Pupal",[1],17±4%
same,EC50,FMRFa-R; [2],28 nM
SDNFMRF-NH2 [D. melanogaster FMRF-NH2 peptide encoded in dFMRFa],"% increase in heart rate, Adult",[1],39±11%
same,"% increase in heart rate, Larval",[1],24±8%
same,"% increase in heart rate, Pupal",[1],15±4%
same,EC50,FMRFa-R; [2],1.9 nM
